For nine compounds, IC50 results are on record in ChEMBL document CHEMBL1128034, “Structure activity of topoisomerase i poisons related to hoechst 33342” (Bioorg Med Chem Lett, 1994).

Common to all, as to format: functional, cell-based
Assay [1] relates to RPMI 8402. Kind of assay: Cytotoxicity towards camptothecin resistant CPT-K5 cell line in human.
For assay [2], the system named is PC-3. Kind of assay: Cytotoxicity towards prostatic carcinoma (PC3) cells in human.
Assay [3] deals with RPMI 8402. Kind of assay: Cytotoxicity towards lymphoblastoma (RPMI 8402) cells in human.
Assay [4] has as its system SK-MEL. Kind of assay: Cytotoxicity towards melanoma (SK-Mel) cells in human.
The test system of assay [5] is PC-3. Kind of assay: Cytotoxicity towards prostatic carcinoma (PC3) cells in human; Not active.
Assay [6] relates to SK-MEL. Kind of assay: Cytotoxicity towards melanoma (SK-Mel) cells in human; Not active.

In the case of `COc1ccc(-c2nc3cc(-c4nc5cc(CCN(C)C)ccc5[nH]4)ccc3[nH]2)cc1`, the IC50 is 6100 nM in the assay with RPMI 8402 [1], 43000 nM in the assay on PC-3 [2], 610 nM in the assay with RPMI 8402 [3] and 8500 nM with SK-MEL [4].
On the same counts, the results for `COc1ccc(-c2nc3cc(-c4nc5cc(N(C)C)ccc5[nH]4)ccc3[nH]2)cc1` are 650 nM, 4900 nM, 130 nM and 26000 nM.
Take `COc1ccc(-c2nc3cc(-c4nc5cc(CN(C)C)ccc5[nH]4)ccc3[nH]2)cc1`: the IC50 is 6300 nM in the assay on RPMI 8402 [1], 52000 nM in the assay with PC-3 [2], 380 nM with RPMI 8402 [3] and 10000 nM with SK-MEL [4].
With `COc1ccc(-c2nc3cc(-c4nc5cc(N)ccc5[nH]4)ccc3[nH]2)cc1`, the IC50 in the assay with RPMI 8402 [1] worked out at 14000 nM; in the assay with PC-3 [2], 19000 nM; with RPMI 8402 [3], 1700 nM; with SK-MEL [4] it was 6200 nM.
`COc1ccc(-c2nc3cc(-c4nc5cc(CCCN(C)C)ccc5[nH]4)ccc3[nH]2)cc1`: the IC50 was found to be 7100 nM in the assay with RPMI 8402 [1], 28000 nM in the assay with PC-3 [2], 1200 nM in the assay with RPMI 8402 [3] and 10000 nM with SK-MEL [4].
Consider `CCOc1ccc(-c2nc3cc(-c4nc5cc(N6CCN(C)CC6)ccc5[nH]4)ccc3[nH]2)cc1`, for which the IC50 in the assay with RPMI 8402 [1] stood at 500 nM; in the assay on PC-3 [2], 710 nM; with RPMI 8402 [3], 5 nM; in the assay with SK-MEL [4] it was 1600 nM.
Consider `COc1ccc(-c2nc3cc(-c4nc5cc(N6CCN(C)CC6)ccc5[nH]4)ccc3[nH]2)cc1`, for which the IC50 in the assay with RPMI 8402 [1] is 570 nM; in the assay with PC-3 [2], 840 nM; in the assay with RPMI 8402 [3], below 50 nM; with SK-MEL [4], 1100 nM.
`COc1ccc(-c2nc3cc(-c4nc5cc(OC6CCN(C)CC6)ccc5[nH]4)ccc3[nH]2)cc1`: the IC50 in the assay on RPMI 8402 [1] is 440 nM; in the assay on PC-3 [2], 380 nM; in the assay on RPMI 8402 [3], below 40 nM; in the assay on SK-MEL [4], 2000 nM.
Turning to `COc1ccc(-c2nc3cc(-c4nc5cc([N+](=O)[O-])ccc5[nH]4)ccc3[nH]2)cc1`, the IC50 is 3900 nM with RPMI 8402 [1], “Not Active” in the assay with PC-3 [5], 650 nM with RPMI 8402 [3] and “Not Active” with SK-MEL [6].

By IC50 is commonly meant the concentration needed to halve the response being measured. A high value points to weaker potency in that assay.
